Results as given in patent US12280066B2, “Methods and compositions related to glucocorticoid receptor antagonists and breast cancer” (The University of Chicago, priority 2010, dated 2025).

Legend:
[1] = test system: T-R MCF-7 (ER+/PR+/GR+) cells; assay: Annexin V FACS apoptosis assay, T-R MCF-7 cells; assay type: cell-based; settings: mifepristone/paclitaxel 10^-6 M compared to paclitaxel alone, 20 hours, P=0.028
Method: (§1) Apoptosis was measured using FITC conjugated-anti-Annexin V antibody labeling followed FACS analysis to determine the percentage of the total cell population undergoing apoptosis after 20 hours of treatment.

[2] = test system: Parental MCF-7 (ER+/PR+/GR+) cells; assay: Annexin V FACS apoptosis assay, parental MCF-7 cells; assay type: cell-based; settings: mifepristone/paclitaxel 10^-6 M compared to paclitaxel alone, 20 hours
Method: as §1

[3] = test system: glucocorticoid receptor (GR); settings: literature (Moran et al., 2000; Mikosz et al., 2001); cited from earlier work
[4] = test system: MDA-MB-231 human breast cancer cells; assay: MDA-MB-231 xenograft tumor volume in SCID mice; settings: mifepristone 15 mg/kg i.p. two hours prior to paclitaxel 10 mg/kg, five successive days, compared to paclitaxel alone, P=0.013

SMILES: CC#C[C@]1(O)CC[C@H]2[C@@H]3CCC4=CC(=O)CCC4=C3[C@@H](c3ccc(N(C)C)cc3)C[C@@]21C [mifepristone]
- apoptosis (percentage of total cell population undergoing apoptosis) [1]: Significantly more apoptosis
- apoptosis (percentage of total cell population undergoing apoptosis) ([1]; listed as Mifepristone): increases
- apoptosis (percentage of total cell population undergoing apoptosis) [2]: No difference
- apoptosis (percentage of total cell population undergoing apoptosis) ([2]; listed as Mifepristone): not parental MCF-7
- reversal of GR-initiated cell survival signaling [3]: reverses cell survival signaling pathways initiated by the GR
- tumor volume over time [4]: increases MDA-MB-231 tumor susceptibility to paclitaxel
- tumor volume over time ([4]; listed as Mifepristone): significantly decreased tumor volume over time
